Test results taken from ChEMBL document CHEMBL1201862, “PubChem BioAssay data set” (2004).
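Briefly, cells in 96-well plates were exposed to five compound concentrations for 48 h, and endpoints were estimated by linear interpolation. The concentration for 50% growth inhibition is given as GI50.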 Active and inactive are the calls of the source. Cut-off read from the data, not from the text of the source: active = GI50 up to about 1.1 µM and inactive = higher.

Experiments:
Assay in all cases: NCI tumour cell line growth inhibition, 48 h
OVCAR-5 = tested on: OVCAR-5
HCT-15 = tested on: HCT-15
SK-MEL-5 = tested on: SK-MEL-5
NCI-H23 = tested on: NCI-H23
NCI-H522 = tested on: NCI-H522
KM-20L2 = tested on: KM-20L2
NCI-H460 = tested on: NCI-H460
EKVX = tested on: EKVX
786-0 = tested on: 786-0
SF-295 = tested on: SF-295
RPMI-8226 = tested on: RPMI-8226
SNB-75 = tested on: SNB-75
A498 = tested on: A498
Malme-3M = tested on: Malme-3M
UACC-257 = tested on: UACC-257
HCC 2998 = tested on: HCC 2998
K562 = tested on: K562
RXF 631 = tested on: RXF 631
ACHN = tested on: ACHN
U-251 = tested on: U-251
OVCAR-8 = tested on: OVCAR-8
SK-MEL-2 = tested on: SK-MEL-2
XF498 = tested on: XF498
A549 = tested on: A549
UACC-62 = tested on: UACC-62
LXFL 529 = tested on: LXFL 529
SNB-78 = tested on: SNB-78
HL-60 = tested on: HL-60
CCRF-CEM = tested on: CCRF-CEM
KM12 = tested on: KM12
SF-539 = tested on: SF-539
OVCAR-3 = tested on: OVCAR-3
HT-29 = tested on: HT-29
HCT-116 = tested on: HCT-116
UO-31 = tested on: UO-31
CAKI-1 = tested on: CAKI-1
MOLT-4 = tested on: MOLT-4
COLO 205 = tested on: COLO 205
SW-620 = tested on: SW-620
DMS-273 = tested on: DMS-273
DLD-1 = tested on: DLD-1
SN12C = tested on: SN12C
IGROV-1 = tested on: IGROV-1
HOP-62 = tested on: HOP-62
SR = tested on: SR
M19-MEL = tested on: M19-MEL
DMS-114 = tested on: DMS-114
SK-OV-3 = tested on: SK-OV-3
NCI-H226 = tested on: NCI-H226
HOP-18 = tested on: HOP-18
HOP-92 = tested on: HOP-92
SF-268 = tested on: SF-268
SNB-19 = tested on: SNB-19
LOX IMVI = tested on: LOX IMVI
M14 = tested on: M14
SK-MEL-28 = tested on: SK-MEL-28
OVCAR-4 = tested on: OVCAR-4
TK-10 = tested on: TK-10
RXF 393 = tested on: RXF 393

Measured: GI50

COc1ccc(/C=C\c2cc(OC)c(OC)c(OC)c2)cc1
0.000448 µM: HCT-15
active: SK-MEL-5 < 0.0001 µM | NCI-H23 0.000357 µM | NCI-H522 0.000364 µM | KM-20L2 0.000428 µM | NCI-H460 < 0.01 µM | EKVX 0.00264 µM | 786-0 0.000395 µM | SF-295 0.000185 µM | RPMI-8226 0.00049 µM | SNB-75 0.000237 µM | A498 < 0.01 µM | Malme-3M 0.00184 µM | UACC-257 < 0.01 µM | HCC 2998 0.0385 µM | K562 0.000102 µM | RXF 631 < 0.01 µM | ACHN 0.000653 µM | U-251 0.000284 µM | OVCAR-8 0.000832 µM | SK-MEL-2 < 0.01 µM | XF498 0.000741 µM | A549 0.00051 µM | UACC-62 < 0.0001 µM | LXFL 529 0.000507 µM | SNB-78 0.000116 µM | HL-60 0.000244 µM | CCRF-CEM 0.000269 µM | KM12 0.000124 µM | SF-539 0.000389 µM | OVCAR-3 < 0.0001 µM | HT-29 < 0.01 µM | HCT-116 0.000279 µM | UO-31 < 0.01 µM | CAKI-1 < 0.01 µM | MOLT-4 0.000506 µM | COLO 205 0.0291 µM | SW-620 0.000237 µM | DMS-273 0.000273 µM | DLD-1 0.0004 µM | SN12C 0.000843 µM | IGROV-1 0.0387 µM | HOP-62 0.1 µM | SR < 0.01 µM | M19-MEL < 0.01 µM | DMS-114 0.0013 µM | SK-OV-3 0.000726 µM | NCI-H226 0.000499 µM | HOP-18 0.973 µM | HOP-92 0.0127 µM | SF-268 0.000766 µM | SNB-19 0.0013 µM | LOX IMVI 0.000632 µM | M14 0.00024 µM | SK-MEL-28 < 0.01 µM
inactive: OVCAR-5 43.5 µM

O=C(CCc1nnc(S)[nH]1)NC12CC3CC(CC(C3)C1)C2
inactive: OVCAR-5 > 100 µM | SK-MEL-5 > 100 µM | NCI-H23 > 100 µM | KM-20L2 > 100 µM | NCI-H460 > 100 µM | EKVX > 100 µM | 786-0 > 100 µM | SF-295 > 100 µM | SNB-75 > 100 µM | A498 > 100 µM | OVCAR-4 > 100 µM | Malme-3M > 100 µM | UACC-257 > 100 µM | HCC 2998 > 100 µM | K562 > 100 µM | RXF 631 > 100 µM | ACHN > 100 µM | U-251 > 100 µM | OVCAR-8 > 100 µM | SK-MEL-2 > 100 µM | XF498 > 100 µM | A549 > 100 µM | UACC-62 > 100 µM | LXFL 529 > 100 µM | SNB-78 > 100 µM | HL-60 > 100 µM | CCRF-CEM > 100 µM | KM12 > 100 µM | TK-10 > 100 µM | SF-539 > 100 µM | OVCAR-3 > 100 µM | HT-29 > 100 µM | HCT-116 > 100 µM | UO-31 > 100 µM | CAKI-1 > 70.5 µM | COLO 205 > 100 µM | SW-620 > 100 µM | DMS-273 > 100 µM | DLD-1 > 100 µM | SN12C > 100 µM | IGROV-1 > 100 µM | HOP-62 > 100 µM | M19-MEL > 100 µM | DMS-114 > 100 µM | RXF 393 > 100 µM | SK-OV-3 > 100 µM | NCI-H226 > 100 µM | HOP-18 > 100 µM | HOP-92 > 100 µM | SF-268 > 10 µM | SNB-19 > 100 µM | LOX IMVI > 100 µM | M14 > 100 µM | SK-MEL-28 > 100 µM
active: SR 1 µM
> 100 µM: HCT-15

COc1ccc(CC(C)N)cc1 (stereo unspecified) [PARA-METHOXYAMPHETAMINE]
inactive: OVCAR-5 > 100 µM | SK-MEL-5 > 100 µM | NCI-H23 > 100 µM | NCI-H522 > 100 µM | KM-20L2 > 100 µM | NCI-H460 > 100 µM | EKVX > 100 µM | 786-0 > 100 µM | SF-295 > 100 µM | RPMI-8226 > 100 µM | SNB-75 > 100 µM | A498 > 100 µM | OVCAR-4 > 100 µM | Malme-3M > 100 µM | UACC-257 > 100 µM | HCC 2998 > 100 µM | K562 > 100 µM | RXF 631 > 100 µM | ACHN > 100 µM | U-251 > 100 µM | OVCAR-8 > 100 µM | SK-MEL-2 > 100 µM | XF498 > 100 µM | A549 > 100 µM | UACC-62 > 100 µM | LXFL 529 > 100 µM | SNB-78 > 100 µM | HL-60 > 100 µM | CCRF-CEM > 100 µM | KM12 > 100 µM | TK-10 > 100 µM | SF-539 > 100 µM | OVCAR-3 > 100 µM | HT-29 > 100 µM | HCT-116 > 100 µM | UO-31 > 100 µM | CAKI-1 > 100 µM | MOLT-4 > 100 µM | COLO 205 > 100 µM | SW-620 > 100 µM | DMS-273 > 100 µM | DLD-1 > 100 µM | SN12C > 100 µM | IGROV-1 > 100 µM | HOP-62 > 100 µM | SR > 100 µM | DMS-114 > 100 µM | RXF 393 > 100 µM | SK-OV-3 > 100 µM | NCI-H226 > 100 µM | HOP-18 > 100 µM | HOP-92 > 100 µM | SF-268 > 100 µM | SNB-19 > 100 µM | LOX IMVI > 100 µM | M14 > 100 µM | SK-MEL-28 > 100 µM
> 100 µM: HCT-15

NC1=NN(c2ccccc2)C(=O)C1/C(=N\NC(=O)c1cc2ccccc2cc1O)C(=O)Nc1ccc(Cl)cc1 (stereo unspecified)
10.5 µM: HCT-15
inactive: OVCAR-5 31.4 µM | SK-MEL-5 24.7 µM | NCI-H23 24.7 µM | NCI-H522 20.4 µM | KM-20L2 32.7 µM | NCI-H460 13.5 µM | EKVX 22.8 µM | 786-0 20.2 µM | SF-295 35.5 µM | RPMI-8226 22.6 µM | SNB-75 4.72 µM | A498 24.2 µM | OVCAR-4 18.5 µM | Malme-3M 30.8 µM | UACC-257 28.6 µM | HCC 2998 28.9 µM | K562 10.1 µM | RXF 631 49.1 µM | ACHN 26 µM | U-251 31.5 µM | OVCAR-8 20.8 µM | SK-MEL-2 23.2 µM | XF498 34.6 µM | A549 44.5 µM | UACC-62 19 µM | LXFL 529 22.2 µM | SNB-78 34.8 µM | HL-60 3.57 µM | CCRF-CEM 3.73 µM | KM12 27.9 µM | TK-10 37.1 µM | SF-539 23.9 µM | OVCAR-3 10.9 µM | HT-29 42.5 µM | HCT-116 11.9 µM | UO-31 21.8 µM | CAKI-1 31 µM | MOLT-4 6.78 µM | COLO 205 23.1 µM | SW-620 32.1 µM | DMS-273 20.2 µM | DLD-1 21.6 µM | SN12C 36.8 µM | IGROV-1 20 µM | HOP-62 36.6 µM | M19-MEL 26.4 µM | DMS-114 17.9 µM | SK-OV-3 51.5 µM | NCI-H226 23.6 µM | HOP-18 25.4 µM | HOP-92 23.1 µM | SF-268 12.7 µM | SNB-19 37.8 µM | M14 20.7 µM | SK-MEL-28 25.1 µM
